Test results published in patent US8889676B2, “3-ureidoisoquinolin-8-yl derivatives” (Actelion Pharmaceuticals Ltd., priority 2011, dated 2014).
Values after ≈ are worked out from the molar mass of the structure shown.

System: S. pneumoniae ATCC 49619
Experiment: Minimal inhibitory concentration (MIC) by broth microdilution (CLSI M7-A7)
Type: cell-based, Streptococcus pneumoniae
Settings: Streptococcus pneumoniae, ATCC49619; cation-adjusted Mueller Hinton Broth supplemented with 3% (v/v) lysed horse blood; microdilution method
Procedure: Minimal inhibitory concentrations (MICs; mg/l) were determined in cation-adjusted MuellerHinton Broth (supplemented with 3% (v/v) lysed horse blood for testing Streptococcus pneumoniae) by a microdilution method following the description given in “Methods for Dilution Antimicrobial Susceptibility Tests for Bacteria that Grow Aerobically”, Approved standard, 7th ed., a Clinical and Laboratory Standards Institute (CLSI) Document M7-A7, Wayne, Pa., USA, 2006.

MIC [µg/mL] | SMILES
1 | CCNC(=O)Nc1cc2c(-c3ccncc3)ccc(CNC(=O)OCCCN3CCCC3=O)c2cn1.Cl [Example 85, [3-(3-ethyl-ureido)-5-pyridin-4-yl-isoquinolin-8-ylmethyl]-carbamic acid 3-(2-oxo-pyrrolidin-1-yl)-propyl ester hydrochloride]
0.25 | CCNC(=O)Nc1cc2c(-c3ccncc3)ccc(CNC(=O)OC[C@@H]3CCC(=O)N3)c2cn1.Cl [Example 87, (S)-[3-(3-ethyl-ureido)-5-pyridin-4-yl-isoquinolin-8-ylmethyl]-carbamic acid 5-oxo-pyrrolidin-2-ylmethyl ester hydrochloride]
2 | CCNC(=O)Nc1cc2c(-c3ccncc3)ccc(CNC(=O)OCc3cncn3C)c2cn1.Cl [Example 88, [3-(3-ethyl-ureido)-5-pyridin-4-yl-isoquinolin-8-ylmethyl]-carbamic acid 3-methyl-3H-imidazol-4-ylmethyl ester hydrochloride]
8 | CCNC(=O)Nc1cc2c(-c3ccncc3)ccc(CNC(=O)OCCCN(C)C)c2cn1.Cl [Example 89, [3-(3-ethyl-ureido)-5-pyridin-4-yl-isoquinolin-8-ylmethyl]-carbamic acid 3-dimethylamino-propyl ester hydrochloride]
2 (≈ 4.91 µM) | CCNC(=O)Nc1cc2c(-c3ccncc3)ccc(CNC(=O)CCCO)c2cn1 [Example 90, N-[3-(3-ethyl-ureido)-5-pyridin-4-yl-isoquinolin-8-ylmethyl]-4-hydroxy-butyramide]
1 | CCNC(=O)Nc1cc2c(-c3ccncc3)ccc(CNC(=O)OCCN3CCOCC3)c2cn1.Cl [Example 91, [3-(3-ethyl-ureido)-5-pyridin-4-yl-isoquinolin-8-ylmethyl]-carbamic acid 2-morpholin-4-yl-ethyl ester hydrochloride]
4 | CCNC(=O)Nc1cc2c(-c3ccncc3)ccc(CNC(=O)OCCCN3CCCCC3)c2cn1.Cl [Example 92, [3-(3-ethyl-ureido)-5-pyridin-4-yl-isoquinolin-8-ylmethyl]-carbamic acid 3-piperidin-1-yl-propyl ester hydrochloride]
8 | CCNC(=O)Nc1cc2c(-c3ccncc3)ccc(CNC(=O)OCCN3CCNC3=O)c2cn1.Cl [Example 93, [3-(3-ethyl-ureido)-5-pyridin-4-yl-isoquinolin-8-ylmethyl]-carbamic acid 2-(2-oxo-imidazolidin-1-yl)-ethyl ester hydrochloride]
0.5 | CCNC(=O)Nc1cc2c(-c3ccncc3)ccc(CNC(=O)OCCCOC)c2cn1.Cl [Example 94, [3-(3-ethyl-ureido)-5-pyridin-4-yl-isoquinolin-8-ylmethyl]-carbamic acid 3-methoxy-propyl ester hydrochloride]
0.5 (≈ 1.19 µM) | CCNC(=O)Nc1cc2c(-c3ccncc3)ccc(CNC(=O)CCCOC)c2cn1 [Example 95, N-[3-(3-ethyl-ureido)-5-pyridin-4-yl-isoquinolin-8-ylmethyl]-4-methoxy-butyramide]
2 | CCNC(=O)Nc1cc2c(-c3ccncc3)ccc(CNC(=O)OCC(N)=O)c2cn1.Cl [Example 96, [3-(3-ethyl-ureido)-5-pyridin-4-yl-isoquinolin-8-ylmethyl]-carbamic acid carbamoylmethyl ester hydrochloride]
2 | CCNC(=O)Nc1cc2c(-c3ccncc3)ccc(CNC(=O)OCCN3C(=O)CCC3=O)c2cn1.Cl [Example 97, [3-(3-ethyl-ureido)-5-pyridin-4-yl-isoquinolin-8-ylmethyl]-carbamic acid 2-(2,5-dioxo-pyrrolidin-1-yl)-ethyl ester hydrochloride]
4 | CCNC(=O)Nc1cc2c(-c3ccncc3)ccc(CNC(=O)OCCN3CCCCC3)c2cn1.Cl [Example 98, [3-(3-ethyl-ureido)-5-pyridin-4-yl-isoquinolin-8-ylmethyl]-carbamic acid 2-piperidin-1-yl-ethyl ester hydrochloride]
0.5 | CCNC(=O)Nc1cc2c(-c3ccncc3)ccc(CNC(=O)OCC(C)C)c2cn1.Cl [Example 99, [3-(3-ethyl-ureido)-5-pyridin-4-yl-isoquinolin-8-ylmethyl]-carbamic acid isobutyl ester hydrochloride]
8 | CCNC(=O)Nc1cc2c(-c3ccncc3)ccc(CNC(=O)OCC[C@H]3CCCNC3)c2cn1.Cl [Example 100, [3-(3-ethyl-ureido)-5-pyridin-4-yl-isoquinolin-8-ylmethyl]-carbamic acid (R)-2-piperidin-3-yl-ethyl ester hydrochloride]
2 | CCNC(=O)Nc1cc2c(-c3ccncc3)ccc(CNC(=O)OC[C@H]3CC[C@H](CN)CC3)c2cn1.Cl [Example 101, trans-[3-(3-ethyl-ureido)-5-pyridin-4-yl-isoquinolin-8-ylmethyl]-carbamic acid 4-(aminomethyl)-(cyclohexylmethyl) ester hydrochloride]
1 | CCNC(=O)Nc1cc2c(-c3ccncc3)ccc(CNC(=O)OCC[C@@H](O)CO)c2cn1.Cl [Example 102, (R)-[3-(3-ethyl-ureido)-5-pyridin-4-yl-isoquinolin-8-ylmethyl]-carbamic acid 3,4-dihydroxy-butyl ester hydrochloride]
8 (≈ 18.3 µM) | CCNC(=O)Nc1cc2c(-c3ccncc3)ccc(CNC(=O)OCCC(=O)O)c2cn1 [Example 104, 3-((((3-(3-ethylureido)-5-(pyridin-4-yl)isoquinolin-8-yl)methyl)carbamoyl)oxy)propanoic acid]
4 | CCNC(=O)Nc1cc2c(-c3ccncc3)ccc(CNC(=O)OCCC(=O)OC)c2cn1.Cl [Example 105, methyl 3-((((3-(3-ethylureido)-5-(pyridin-4-yl)isoquinolin-8-yl)methyl)carbamoyl)oxy)propanoate hydrochloride]

The remaining lines, values behind:

SMILES | MIC [µg/mL]
CCNC(=O)Nc1cc2c(-c3ccncc3)ccc(CNC(=O)Cn3cccn3)c2cn1 [Example 70, N-[3-(3-ethyl-ureido)-5-pyridin-4-yl-isoquinolin-8-ylmethyl]-2-pyrazol-1-yl-acetamide] | 0.5 (≈ 1.16 µM)
CCNC(=O)Nc1cc2c(-c3ccncc3)ccc(CNC(=O)c3cnc[nH]3)c2cn1 [Example 71, 3H-imidazole-4-carboxylic acid [3-(3-ethyl-ureido)-5-pyridin-4-yl-isoquinolin-8-ylmethyl]-amide] | 2 (≈ 4.81 µM)
CCNC(=O)Nc1cc2c(-c3ccncc3)ccc(CNC(=O)c3cc[nH]n3)c2cn1 [Example 72, 1H-pyrazole-3-carboxylic acid [3-(3-ethyl-ureido)-5-pyridin-4-yl-isoquinolin-8-ylmethyl]-amide] | 0.5 (≈ 1.2 µM)
CCNC(=O)Nc1cc2c(-c3ccncc3)ccc(CNC(=O)c3cn[nH]c3)c2cn1 [Example 73, 1H-pyrazole-4-carboxylic acid [3-(3-ethyl-ureido)-5-pyridin-4-yl-isoquinolin-8-ylmethyl]-amide] | 2 (≈ 4.81 µM)
CCNC(=O)Nc1cc2c(-c3ccncc3)ccc(CNC(=O)c3ncc[nH]3)c2cn1 [Example 74, 1H-imidazole-2-carboxylic acid [3-(3-ethyl-ureido)-5-pyridin-4-yl-isoquinolin-8-ylmethyl]-amide] | 0.25 (≈ 0.602 µM)
C#CC(=O)NCc1ccc(-c2ccncc2)c2cc(NC(=O)NCC)ncc12 [Example 75, propynoic acid [3-(3-ethyl-ureido)-5-pyridin-4-yl-isoquinolin-8-ylmethyl]-amide] | 0.25 (≈ 0.669 µM)
CCNC(=O)Nc1cc2c(-c3ccncc3)ccc(CNC(=O)OC(C)(C)C)c2cn1 [Example 76, [3-(3-ethyl-ureido)-5-pyridin-4-yl-isoquinolin-8-ylmethyl]-carbamic acid tert-butyl ester] | 0.25 (≈ 0.593 µM)
CCNC(=O)Nc1cc2c(-c3ccncc3)ccc(CNC(=O)OC(C)C)c2cn1 [Example 77, [3-(3-ethyl-ureido)-5-pyridin-4-yl-isoquinolin-8-ylmethyl]-carbamic acid isopropyl ester] | 0.5 (≈ 1.23 µM)
CCNC(=O)Nc1cc2c(-c3ccncc3)ccc(CNC(=O)OCCN(C)C)c2cn1 [Example 78, [3-(3-ethyl-ureido)-5-pyridin-4-yl-isoquinolin-8-ylmethyl]-carbamic acid 2-dimethylamino-ethyl ester] | 4 (≈ 9.16 µM)
CCNC(=O)Nc1cc2c(-c3ccncc3)ccc(CNC(=O)OC)c2cn1 [Example 79, [3-(3-ethyl-ureido)-5-pyridin-4-yl-isoquinolin-8-ylmethyl]-carbamic acid methyl ester] | 0.25 (≈ 0.659 µM)
CCNC(=O)Nc1cc2c(-c3ccncc3)ccc(CNC(=O)OCCN3CCCC3)c2cn1 [Example 80, [3-(3-ethyl-ureido)-5-pyridin-4-yl-isoquinolin-8-ylmethyl]-carbamic acid 2-pyrrolidin-1-yl-ethyl ester] | 8 (≈ 17.3 µM)
CCNC(=O)Nc1cc2c(-c3ccncc3)ccc(CNC(=O)OCCNC(=O)OC(C)(C)C)c2cn1 [Example 81, [3-(3-ethyl-ureido)-5-pyridin-4-yl-isoquinolin-8-ylmethyl]-carbamic acid 2-tert-butoxycarbonylamino-ethyl ester] | 0.5 (≈ 0.983 µM)
CCNC(=O)Nc1cc2c(-c3ccncc3)ccc(CNC(=O)OCCN(C)C(=O)OC(C)(C)C)c2cn1 [Example 82, tert-butyl (2-((((3-(3-ethylureido)-5-(pyridin-4-yl)isoquinolin-8-yl)methyl)carbamoyl)oxy)ethyl)(methyl)carbamate] | 2 (≈ 3.83 µM)
CCNC(=O)Nc1cc2c(-c3ccncc3)ccc(CNC(=O)OCCN3CCN(C(=O)OC(C)(C)C)CC3)c2cn1 [Example 83, tert-butyl 4-(2-((((3-(3-ethylureido)-5-(pyridin-4-yl)isoquinolin-8-yl)methyl)carbamoyl)oxy)ethyl)piperazine-1-carboxylate] | 1 (≈ 1.73 µM)
CCNC(=O)Nc1cc2c(-c3ccncc3)ccc(CNC(=O)OCC3CC3)c2cn1.Cl [Example 84, [3-(3-ethyl-ureido)-5-pyridin-4-yl-isoquinolin-8-ylmethyl]-carbamic acid cyclopropylmethyl ester hydrochloride] | 0.5
